Source: PubChem BioAssay AID1417 (Emory University Molecular Libraries Screening Center, 2008)

Target: Induced myeloid leukemia cell differentiation protein Mcl-1 (Homo sapiens) (UniProt Q07820)
Assay: Mcl-1/Noxa binding inhibitor potency, dose response, biochemical, TR-FRET (AID 1417)
Details: Mcl-1/Noxa peptide interaction, cell-free TR-FRET (terbium/rhodamine), 2 h; measured here: absolute IC50

Sequence of Induced myeloid leukemia cell differentiation protein Mcl-1 (Homo sapiens) (Q07820 whole entry, looked up): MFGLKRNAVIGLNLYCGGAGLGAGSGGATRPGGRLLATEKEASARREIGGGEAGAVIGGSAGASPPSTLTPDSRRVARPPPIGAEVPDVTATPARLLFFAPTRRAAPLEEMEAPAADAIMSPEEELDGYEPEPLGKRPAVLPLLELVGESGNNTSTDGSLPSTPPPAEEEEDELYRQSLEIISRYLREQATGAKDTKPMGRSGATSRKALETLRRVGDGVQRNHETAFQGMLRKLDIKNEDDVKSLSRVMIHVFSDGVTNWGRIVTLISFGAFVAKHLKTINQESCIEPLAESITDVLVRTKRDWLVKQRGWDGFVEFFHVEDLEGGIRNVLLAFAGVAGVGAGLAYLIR

Cc1cc2nc(-c3ccc(SCC(=O)N4CCN(C(=O)c5ccco5)CC4)nc3)[nH]c2cc1C
IC50: 4.16 µM

O=[N+]([O-])c1ccc(/C=N/NC(=S)Nc2ccc(Cl)cc2Cl)s1
IC50: 1.34 µM

CNc1ccc(Br)cc(C(=O)/C=C/c2ccc(Cl)cc2Cl)c1=O
IC50: 1.41 µM

CC(=O)c1ccc(NC(=O)CC2Nc3cccc4cccc(c34)NC2=O)cc1 (configuration not stated)
IC50: 3.62 µM

O=C(Nc1nc(-c2ccco2)c(-c2ccco2)s1)C1CC(=O)N(c2ccc3c(c2)OCCO3)C1 (configuration not stated)
IC50: 5.49 µM

O=[N+]([O-])c1ccc2c(c1)N([O-])C1(CCCCC1)[N+]2=O
IC50: < 0.4 µM

O=C(/C=C/c1ccccc1)c1ccc(NC2=NCCCS2)cc1
IC50: 6.52 µM

CC(C)OC(=O)Cn1cnc2ccc(Br)cc2c1=O
IC50: > 54 µM

O=C1OCC2OC(O)C(O)C(O)C2OC(=O)c2cc(O)c(O)c(O)c2-c2c(O)c(O)c3oc(=O)c4c(c(O)c(O)c5oc(=O)c2c3c54)-c2c1cc(O)c(O)c2O (configuration not stated)
IC50: < 0.4 µM

COc1ccc(-c2nn(CCC(=O)O)cc2/C=C2\SC(N)=NC2=O)cc1OC
IC50: 4.36 µM

CCOc1cc(/C=C(\C#N)c2[nH]nc(N)c2C#N)ccc1O
IC50: 4.6 µM

CCS(=O)(=O)C1=NN2C(=N)/C(=C\c3ccc(SCc4ccco4)o3)C(=O)N=C2S1
IC50: 1.46 µM

Cc1cccc(NC(=O)c2cccs2)n1
IC50: > 54 µM

CCCCN1C(=O)/C(=C/C=C/c2ccco2)C(=O)NC1=S
IC50: 0.55 µM

O=C(Nc1cccc(Cl)c1)c1cc(N=Nc2ccc([N+](=O)[O-])cc2Cl)ccc1O
IC50: 1.56 µM

Cn1c(N)c(C(=O)COC(=O)c2cc(-c3ccco3)nc3ccccc23)c(=O)n(C)c1=O
IC50: 3.41 µM

O=C1CCCC2=C1C(c1ccc(O)c(O)c1)c1c(ccc3ncccc13)N2 (configuration not stated)
IC50: < 0.4 µM

CN1CCN(c2ccc(Cl)cc2NC(=O)c2ccc(S(=O)(=O)N3CCCCCC3)cc2)CC1
IC50: 3.89 µM

NS(=O)(=O)c1ccc(NC(=S)NC(=O)/C=C/c2ccco2)cc1
IC50: 6.75 µM

CC1=NOC(=O)/C1=C\c1ccc(-c2ccc(Cl)cc2Cl)o1
IC50: < 0.4 µM

Cc1cccc(NC(=O)CSc2nnc(-c3ccco3)c(-c3ccco3)n2)c1C
IC50: 6.47 µM

NC(=S)n1[nH]c(-c2ccc([N+](=O)[O-])cc2)c(N=Nc2ccc(Cl)cc2)c1=O
IC50: < 0.4 µM

Cc1ccc(/C=C2/SC(=O)NC2=S)o1
IC50: 4.11 µM

CN(C)c1ccc(CC(=O)c2nc3ccccc3s2)cc1
IC50: 3.19 µM

CCOC(=O)NNc1ccc2nonc2c1[N+](=O)[O-]
IC50: < 0.4 µM

COc1ccc(-c2cc3nc4ccccc4n3c(N)c2C#N)cc1
IC50: 4.45 µM

CCCOc1ccc(C(=O)Nc2ccc(N(C)C)cc2)cc1
IC50: > 54 µM

Cc1cccc(/N=C/c2sc3ccccc3c2O)n1
IC50: 0.759 µM

Cn1c(=O)c(C(=O)COC(=O)c2cc(-c3ccco3)nc3ccccc23)c(N)n(Cc2ccccc2)c1=O
IC50: < 0.4 µM

COc1ccccc1NC(=O)C(=O)N/N=C/c1ccc([N+](=O)[O-])s1
IC50: 6.17 µM

COc1ccc(N2CCC(CNC(=O)Nc3ccc(C)c(C)c3)C2)cc1 (configuration not stated)
IC50: > 54 µM

C/C(=N/NC(=O)c1cc2ccccc2cc1O)C1C(=O)c2ccccc2C1=O
IC50: 0.919 µM

CS(=O)(=O)c1ccc2c(c1)SC1=NC(=O)/C(=C/c3ccco3)C(=N)N12
IC50: 2.19 µM

COc1cc(/C=C2\SC(=S)NC2=O)ccc1OS(=O)(=O)c1ccccc1
IC50: 1.97 µM

O=C1c2cccc3cc([N+](=O)[O-])cc(c23)C(=O)N1/N=C/c1ccc(O)cc1O
IC50: 1.52 µM

O=C(Nc1nccs1)c1cc(-c2ccco2)nc2ccccc12
IC50: 1.4 µM

Cc1ccc(C(=O)NNc2c3ccccc3nc3ccccc23)cc1
IC50: 9.97 µM

O=C(/C=C/c1cccs1)N1CCN(c2ccc(O)cc2)CC1
IC50: 3.64 µM

CN1CCN(CCCN2c3ccccc3Sc3ccc(Cl)cc32)CC1
IC50: 4.06 µM

O=c1oc2ccccc2c2oc3cc(O)c(O)cc3c12
IC50: < 0.4 µM

N/C(=N\N=C/c1ccc(-c2ccc(O)c(C(=O)O)c2)o1)N[N+](=O)[O-]
IC50: 2.65 µM

O=C1NN(c2ccc(Cl)c(Cl)c2)C(=O)/C1=C/c1cccc(OC(=O)c2cccs2)c1
IC50: 4.13 µM

CC1C(=O)NN=C1C(=O)N/N=C\c1ccc(O)cc1O (configuration not stated)
IC50: < 0.4 µM

COc1ccc(/C=C2\SC(=O)N(CCC(=O)Nc3ccc(S(=O)(=O)Nc4nccs4)cc3)C2=O)cc1
IC50: < 0.4 µM

c1ccc(-c2ccc(-c3n(-c4ccccn4)c4ccccc4[n+]3-c3ccccn3)cc2)cc1
IC50: 34.6 µM

c1ccc(Nc2cccc(Nc3ccccc3)c2)cc1
IC50: > 54 µM

O=C(Nc1ccccc1)c1ccc2nc(-c3ccco3)c(-c3ccco3)nc2c1
IC50: 3.83 µM

CCN(CC)S(=O)(=O)c1cccc(C(=O)N/N=C/c2ccc(O)c(O)c2O)c1
IC50: < 0.4 µM

COc1cc(/C=N/NC(=O)C2c3ccccc3Oc3ccccc32)ccc1O
IC50: 6.68 µM

Cc1ccc(N=C2NC(=O)S/C2=C\c2ccco2)cc1
IC50: 8.57 µM

Cc1ccccc1/C=N/Nc1ccnc2cc(Cl)ccc12
IC50: 6.6 µM

S=C(NNc1ccnc2cc(Cl)ccc12)Nc1ccc(Cl)cc1Cl
IC50: 6.37 µM

CCN(CCO)c1nc(SC)nc2c1sc1nc(-c3ccco3)c3c(c12)CCC3
IC50: < 0.4 µM

Cc1c(Cc2ccccc2)c(NCCN(C)C)n2c(nc3ccccc32)c1C#N
IC50: 1.91 µM

Cc1ccc(/C=c2\sc3nc(-c4ccco4)nn3c2=O)o1
IC50: 6.14 µM

O=C(O)c1cc(-c2ccc(/C=C3/SC(=S)N(Cc4ccccc4)C3=O)o2)ccc1Cl
IC50: 1.51 µM

CSC1=N/C(=C\c2ccccc2F)C(=O)S1
IC50: > 54 µM

O=C(O)CCCN1C(=O)/C(=C/c2cn(-c3ccccc3)nc2-c2cccs2)SC1=S
IC50: 1.54 µM

O=C1CSC(=S)N1/N=C/c1ccc(O)c([N+](=O)[O-])c1
IC50: 1.39 µM

CC(C)n1c(Nn2cnnc2)nc2ccccc21
IC50: > 54 µM

COc1ccc(N2CCC(CNS(=O)(=O)c3cccc(C(F)(F)F)c3)C2)cc1 (configuration not stated)
IC50: < 0.4 µM

CN(C)c1ccc(NS(=O)(=O)c2cccc(Cl)c2)cc1
IC50: > 54 µM

CCn1c(SCc2nc3sc(C(=O)O)c(C)c3c(=O)[nH]2)nc2ccccc21
IC50: 3.32 µM

Cc1ccc(/C=C/C(=O)Nc2ccc([N+](=O)[O-])c(NC(=O)/C=C/c3ccc(C)o3)c2)o1
IC50: < 0.4 µM

N=C1/C(=C\c2ccc(-c3ccc(C(=O)O)cc3)o2)C(=O)N=C2SC=C(c3ccccc3)N12
IC50: < 0.4 µM

COc1cc(/C=C2\SC(=O)NC2=O)ccc1Oc1ccc([N+](=O)[O-])cc1[N+](=O)[O-]
IC50: 3.29 µM

Cc1ccc(NC(=O)CN2C(=O)/C(=C3\SC(=S)N(C4CCS(=O)(=O)C4)C3=O)c3ccccc32)cc1 (configuration not stated)
IC50: < 0.4 µM

CCOc1ccc(-c2ccc(/C=C3/C(=N)N4C=CSC4=NC3=O)o2)c([N+](=O)[O-])c1
IC50: 1.58 µM

COc1cc(C2C3=C(Nc4nc(N)[nH]c(=O)c42)c2ccccc2C3=O)ccc1O (configuration not stated)
IC50: 2.28 µM

COc1ccc(S(=O)(=O)Nc2cc(Sc3ncn[nH]3)c(O)c3ccccc23)cc1
IC50: < 0.4 µM

Cc1ccc(S(=O)(=O)C(CCC(=O)N2CCOCC2)S(=O)(=O)c2ccc(C)cc2)cc1
IC50: > 54 µM

NC(=S)n1[nH]c(-c2ccc([N+](=O)[O-])cc2)c(N=Nc2ccc(O)cc2)c1=O
IC50: 3.13 µM

COc1ccccc1N1C(=O)C(Cl)=C(Nc2ccccc2O)C1=O
IC50: > 54 µM

COc1cc(/C=N/NC(=O)c2ccc([N+](=O)[O-])cc2Cl)cc(Br)c1O
IC50: > 54 µM

CC(C)c1ccc(S(=O)(=O)/N=C2/C=CC(=O)c3ccccc32)cc1
IC50: < 0.4 µM

COc1ccc(N2CCN(C(=O)c3ccc(CSc4ccccc4)cc3)CC2)cc1
IC50: > 54 µM

O=C1/C(=C\c2ccc(O)cc2)SC(=S)N1/N=C/c1ccc(O)cc1
IC50: 2.99 µM
